Reference: patent US20210113540A1, “TREATMENT AGENT AND PHARMACEUTICAL COMPOSITION FOR GLIOMA” (NATIONAL UNIVERSITY CORPORATION HOKKAIDO UNIVERSITY, priority 2018, published 2021)

Legend:
SOX2 in GICs (E6) = test: SOX2 immunostaining, SOX2/DAPI positive rate in GICs (E6); assay type: cell-based, human
Procedure: (§1) The extranuclear elimination of compound 8-dependent SOX2 is dependent on the extranuclear transport factor, Exportin (also known as CRM1). The cells were cultured for one day in the presence of Compound 8 (10 μM) and a CRM1-specific inhibitor leptomycin B (LMB, 150 nM), and GICs were immunostained with the SOX2 antibody. As a result, the SOX2/DAPI positive rate in GICs (E6) was as follows: Control: 95±2%, supplemented with Compound 8: 7±3%, supplemented with Compound 8+LMB: 87±9%; the SOX2/DAPI positive rate in GICs (E16) was as follows: Control: 72±11%, supplemented with compound 8: 0.5±1%, supplemented with Compound 8+LMB: 81±10%. The addition of LMB suppressed Compound 8-dependent extranuclear elimination of SOX2.
(§2) When UDP-GlcNAc was added after the chemical was added to GIC, reduced SOX2 expression in GICs and the cytotoxic activity of Compound 8 on GICs were neutralized (FIGS. 3 and 4). SOX2 K75A in which lysine 75 involved in the binding of CRM1 and SOX2 was substituted with alanine and SOX2 S248A in which the 0-GlcNAcylation target serine 248 was substituted with alanine were prepared, thereby establishing GICs that constitutively express these SOX2 mutants and wild-type SOX2 (SOX2 wt). After treatment with Compound 8, the localization of SOX2 was examined by immunostaining using an anti-FLAG antibody, and the viability of GICs expressing these mutants was examined by MTT assay (FIG. 5). In the presence of Compound 8, SOX2 K75A was present in the nucleus and partially neutralized the cytotoxic activity of Compound 8. SOX2 S248A was not retained in the nucleus by treatment with Compound 8, and no inhibitory effect on cytotoxic activity was observed. […] The SOX2/DAPI positive rate was as follows: GIC (E6): Control: 0%, SOX2 wt: 36±5%, SOX2 K75A: 63±5%, SOX2 S248A: 18±2%; GIC (E16): Control: 0%, SOX2 wt: 22±4%, SOX2 K75A: 58±6%, SOX2 S248A: 15±3%. Error bar: ±SD. Statistical processing is t-test. *P<0.05, **P<0.01, ***P<0.001. GIC was cultured for 2 days with Compound 8 (10 μmol/L) alone or together with UDP-GlcNAc (1 mmol/L), and immunostaining was performed for SOX2 and NESTIN. As a result, the addition of UDP-GlcNAc suppressed Compound 8-dependent extranuclear elimination of SOX2.
(§3) OSMI-1, which is an O-GlcNAc transferase (OGT)-specific inhibitor, suppresses GIC growth and SOX2 expression. (A) GICs were cultured for 3 days in the presence of various concentrations of OSMI-1, and cell growth was examined using MTT assay (FIG. 6). (B) The results of immunostaining for SOX2 and NESTIN using GICs cultured for 2 days in the presence of 20 μmol/L OSMI-1 and calculating the SOX2 positive rate (SOX2/DAPI) are shown below.

SOX2 in GICs (E16) = test: SOX2 immunostaining, SOX2/DAPI positive rate in GICs (E16); assay type: cell-based, human
Procedure: as §1, §2, §3

[1] = tested on: Temozolomide-resistant E6 (E6R); test: Xenograft model, subcutaneous E6R in NOD/SCID mice; assay type: in vivo
Procedure: Temozolomide-resistant E6 (E6R, 1×10^6) was subcutaneously transplanted into NOD/SCID mice (n=6), and Compound 8 (1.0 mg/kg) was orally administered for 11 consecutive days after the long diameter and short diameter of tumor became 5 to 6 mm. […] The size of tumor was calculated as (long diameter)×(short diameter)^2/2. Tumors were excised from Compound 8 treated mice and control mice on Day 12 from the start of oral administration of Compound 8 and fixed with 4% paraformaldehyde, followed by preparation of frozen sections. As a result, tumor cell aggregates disappeared by treatment with Compound 8.

GICs (E6, E16) = test: Quantitative determination of metabolites by LC-MS/MS in GICs; assay type: cell-based, human; set-up: amounts of purine metabolites (ATP, GTP, dATP, dGTP): dose or concentration left out as unconfirmed; conditions: 24 hours
Procedure: Compound 8 was added to GICs (E6, E16) at […] and treated for 24 hours. Cells were washed with a 5% mannitol solution, 70% ice-cold methanol was added, and metabolites were extracted. […] In addition, the amount of orotic acid was decreased in E16 cells.

GICs = test: Neutralization of GIC-damaging activity by addition of UDP-GlcNAc; assay type: cell-based, human; conditions: UDP-GlcNAc added after the chemical, FIG. 4
Procedure: as §2, with “As a result, the addition of UDP-GlcNAc suppressed Compound 8-dependent extranuclear elimination of SOX2.” left out

[2] = after treatment with Compound 8, anti-FLAG immunostaining
[3] = 1.0 mg/kg orally, tumors excised on Day 12

In the case of `O=C(O)c1cc(C2CC2)cnc1Nc1ccc2c(ccn2-c2ccccc2)c1` [Compound 8, 5-cyclopropyl-2-((1-phenyl-1H-indole-5-yl)amino)nicotinic acid], the “SOX2/DAPI positive rate in GICs (E6)” value (SOX2 in GICs (E6); Compound 8 10 μM, LMB 150 nM where added, cultured one day, control 95±2%) was 7±3%, the “SOX2/DAPI positive rate, GIC (E6) expressing SOX2 K75A” value (SOX2 in GICs (E6); [2]) was 63±5% and the “SOX2/DAPI positive rate, GIC (E6) expressing SOX2 S248A” value (SOX2 in GICs (E6); [2]) was 18±2%. For the same compound, the “SOX2/DAPI positive rate, GIC (E6) expressing SOX2 wt” value (SOX2 in GICs (E6); [2]) was 36±5%, the “SOX2/DAPI positive rate in GICs (E16)” value (SOX2 in GICs (E16); Compound 8 10 μM, LMB 150 nM where added, cultured one day, control 72±11%) was 0.5±1% and the “SOX2/DAPI positive rate, GIC (E16) expressing SOX2 K75A” value (SOX2 in GICs (E16); [2]) was 58±6%. For the same compound, the “SOX2/DAPI positive rate, GIC (E16) expressing SOX2 S248A” value (SOX2 in GICs (E16); [2]) was 15±3%, the “SOX2/DAPI positive rate, GIC (E16) expressing SOX2 wt” value (SOX2 in GICs (E16); [2]) was 22±4% and the “tumor growth (size of tumor)” value ([1]; 1.0 mg/kg orally for 11 consecutive days, FIG. 2) was “reduced tumor growth”. The “SOX2 in the mouse tumor tissue” value [1, 3] was “disappearance of SOX2”, the “tumor cell aggregates in excised tumor sections” value [1, 3] was “disappeared” and the “amounts of pyrimidine metabolites downstream of orotic acid (UMP, UDP, UTP, CMP, CDP, CTP, dCTP, dTTP)” value (GICs (E6, E16); 10 M) was “reduced”. For the same compound, the “amounts of purine metabolites (ATP, GTP, dATP, dGTP)” value (GICs (E6, E16)) was “remained unchanged” and the “cytotoxic activity of Compound 8 on GICs when UDP-GlcNAc was added” value (GICs) was “neutralized”.
